Entries after “also recorded” stand apart in the source; their conditions may differ.
What was measured:
[1] = test system: Th17 cells; test: Th17 development from enriched CD4+ T cells; format: cell-based; conditions: anti-TCRβ plus anti-CD28, skewing cytokines, 4 days
Experimental: (§1) Enriched CD4^+ T cells are plated on 24-well culture dishes that have been precoated 2 hr with 250 μL anti-TCRβ (0.5 μg/mL) plus anti-CD28 (5 μg/mL) at 37° C. in PBS. The cells are then supplemented with media containing BTK inhibitors along with the skewing cytokines as indicated in the following. The Th17 and Treg cultures are grown for 4 days before analysis. The cells are maintained for an additional 3 days with skewing cytokines (Th17; 20 ng/mL IL-6, 0.5 ng/mL TGF-β, 5 μg/mL IL-4, 5 μg/mL IFN-γ and Treg; 0.5 ng/mL TGF-β, 5 μg/mL IL-4, 5 μg/mL IFN-γ) and are supplemented with IL2 as a growth factor.

[2] = test system: CD8+ T cells; test: CD8+ T cell viability; format: cell-based; conditions: anti-TCR and anti-CD28 coated wells, neutral conditions, 4 days
Experimental: Total T cells were plated on anti-TCR and anti-CD28 coated wells in the presence of both BTK inhibitors. Neutral culture conditions were used that will not polarize T cells to a helper lineage. […] Statistical significance was calculated using the Mann Whitney T-test.

[3] = test system: CD8+ T cells; test: Cytotoxic T cell (CTL) assay; format: cell-based; conditions: 500 nM, relative to vehicle
Experimental: Without being bound by any theory, CD8^+ T cells have two primary effector functions: (1) produce large amounts of IFN-γ (which activates macrophages), and (2) cytolytic activity. […] The targets were B lymphoblasts from lipopolysaccharide (LPS) treated cultures. The assay was performed by incubating different ratios of effectors:targets for 4 hours.

[4] = within the tested dose range (through 840 mg); cited from earlier work
[5] = test system: GPVI; test: GPVI platelet aggregation (convulxin); format: cell-based, human
Experimental: GPVI platelet aggregation was measured for Formula (2) and Formula (10) (ibrutinib). Blood was obtained from untreated humans, and platelets were purified from […] by centrifugation. Cells were resuspended to a final concentration of 350,000/μL in buffer containing 145 mmol/L NaCl, 10 mmol/L HEPES, 0.5 mmol/L Na2HPO4, 5 mmol/L KCl, 2 mmol/L MgCl2, 1 mmol/L CaCl2, and 0.1% glucose, at pH 7.4. Stock solutions of Convulxin (CVX) GPVI were prepared on the day of experimentation and added to platelet suspensions 5 minutes (37° C., 1200 rpm) before the induction of aggregation. Aggregation was assessed with a Chronolog Lumi-Aggregometer (model 540 VS; Chronolog, Havertown, PA) and permitted to proceed for 6 minutes after the addition of agonist. The results are reported as maximum percent change in light transmittance from baseline with platelet buffer used as a reference.
In FIG. 72, the results of CVX-induced (250 ng/mL) human platelet aggregation results before and 15 minutes after administration of the BTK inhibitors to 6 healthy individuals are shown.

[6] = test system: B cell receptor; test: Whole blood potency: CD69 on CD19+ B cells after anti-human IgD; format: cell-based; conditions: blood from four healthy donors, 2 hours with compound, anti-human IgD 10 μg/mL 18 hours, read-out: EC50, CD69 on gated CD19+ B cells in whole blood
[7] = test system: Raji; test: ADCC chromium release assay, Raji targets; format: cell-based, human; conditions: 1 μM; all rituximab concentrations; healthy donor NK cells
Experimental: All in vitro experiments were performed in triplicate.
ADCC assays were performed as follows. Briefly, target cells (Raji or primary CLL) were labeled by incubation at 37° C. with 100 μCi ^51Cr for 4 hours prior to co-culture with NK cells. Cells were washed, enumerated, and then added in triplicate to prepared 96-well plates containing treated NK cells at an effector:target (E:T) ratio of 25:1. […] Cultures were incubated at 37° C. for 4 hours, and then centrifuged. Supernatants were harvested and ^51Cr release was measured by liquid scintillation counting. All experiments were performed in triplicate.

[8] = test system: regulatory T cell (Treg); test: Treg development from enriched CD4+ T cells; format: cell-based; conditions: anti-TCRβ plus anti-CD28, skewing cytokines, 4 days
Experimental: as §1

SMILES	effect on Th17 cells / Th17 development [1]	effect on Th17 cells / Th17 development ([1]; listed as ibrutinib)	effect on CD8+ T cell viability [2]	CD8+ T cell function as measured by % cytotoxicity ([3]; 4 days CTL generation)	CD8+ T cell function as measured by IFN-γ level [3]	maximum tolerated dose (MTD) [4]	effect on GPVI platelet aggregation ([5]; CVX-induced human platelet aggregation)	IC50 ([5]; purified human platelets, convulxin (CVX))	EC50 [6]	cell lysis, Raji [7]	effect on Treg development [8]	effect on Treg development ([8]; listed as ibrutinib)
C=CC(=O)N1CCC[C@@H](n2nc(-c3ccc(Oc4ccccc4)cc3)c3c(N)ncnc32)C1 [Formula (10), 1-[(3R)-3-[4-amino-3-(4-phenoxyphenyl)-1H-pyrazolo[3,4-d]pyrimidin-1-yl]piperidin-1-yl]prop-2-en-1-one]	strongly inhibits	profound inhibition	strong, negative effect; also recorded: strongly affects	affects	significant loss of function; also recorded: affects	No maximum tolerated dose (MTD) was apparent	significantly inhibits	0.13 µM	0.0061 µM	< 20%	strongly increases	increase
C=CC(=O)Nc1cccc(Nc2nc(Nc3ccc(OCCOC)cc3)ncc2F)c1 [Formula (17), N-(3-((5-fluoro-2-((4-(2-methoxyethoxy)phenyl)amino)pyrimidin-4-yl)amino)phenyl)acrylamide]	–	–	–	–	–	–	–	–	0.121 µM	–	–	–

— patent US20240197742A1, “Therapeutic Combinations of a CD19 Inhibitor and a BTK Inhibitor” (Acerta Pharma B.V., priority 2015, published 2024)
